In paper PMC10795798 (Journal of the American Chemical Society, 2023):

Target: T1, CYP199A4 (Rhodopseudomonas palustris, UniProt Q2IU02)
T1 sequence (Q2IU02 1-410): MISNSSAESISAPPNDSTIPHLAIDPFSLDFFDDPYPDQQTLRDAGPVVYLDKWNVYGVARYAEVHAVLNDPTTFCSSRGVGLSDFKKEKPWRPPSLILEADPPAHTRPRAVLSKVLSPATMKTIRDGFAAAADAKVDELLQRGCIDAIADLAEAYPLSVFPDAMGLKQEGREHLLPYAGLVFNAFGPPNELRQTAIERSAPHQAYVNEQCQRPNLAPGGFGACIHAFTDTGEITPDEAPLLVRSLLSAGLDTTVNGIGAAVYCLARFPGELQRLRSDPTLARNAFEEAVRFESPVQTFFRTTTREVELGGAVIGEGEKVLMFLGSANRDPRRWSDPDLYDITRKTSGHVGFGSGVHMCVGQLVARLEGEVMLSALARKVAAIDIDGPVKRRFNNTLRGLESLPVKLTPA
Assay: UV-vis spectral titration
Type: binding

**Q.** With `CC(=O)c1ccc(C(=O)O)cc1` [4-acetylbenzoic acid] as the compound, how does the Kd read?
**A.** The Kd was 140 ± 5 µM.
